In article PMC4358968, “Lipid-Free Antigen B Subunits from Echinococcus granulosus: Oligomerization, Ligand Binding, and Membrane Interaction Properties” (PLoS Neglected Tropical Diseases, 2015) one finds Kd and stoichiometry N data, which are given here for three compounds.

By Kd is commonly meant the free concentration of one partner at which half of the binding sites on the other are occupied at equilibrium, for simple one-to-one binding. One may read the stoichiometry N as a count of units in the complex or per binding partner.

For test [1], the target named is T1, EgAgB8/3 (antigen B subunit 3).
T1 construct: gene EgAgB3; recombinant lipid-free (RP-HPLC delipidated) EgAgB8/3 mature subunit, GST fusion cleaved with thrombin; GenBank AAK64236
As to the kind of experiment: fluorimetric titration of 12-AS (direct probe binding, TBS). Also noted: species or system Echinococcus granulosus.

Test [2] concerns the target T2, EgAgB8/2 (antigen B subunit 2) (Echinococcus granulosus, UniProt Q27275).
T2 construct: gene AgB2; recombinant lipid-free (RP-HPLC delipidated) EgAgB8/2 mature subunit, GST fusion cleaved with thrombin; GenBank AAC47169
As to the kind of experiment: fluorimetric titration of 12-AS (direct probe binding, […]°C, TBS).

Test [3] concerns the target recombinant EgAgB8/2 subunit of Echinococcus granulosus antigen B (Echinococcus granulosus). As to the kind of experiment: SEC; 100 uL of lipid-free EgAgB8/2 (324 uM) or EgAgB8/3 (320 uM) loaded separately on Superdex 200 HR 10/30 in PBS, 0.5 mL/min; apparent molecular weight against BSA, carbonic anhydrase and cytochrome c.
Test [4] concerns the target recombinant EgAgB8/3 subunit of Echinococcus granulosus antigen B (Echinococcus granulosus). The description is as above.

As to `CCCCCCC(CCCCCCCCCCC(=O)O)OC(=O)c1c2ccccc2cc2ccccc12` (stereo not shown) [12-AS, 12-(9-anthroyloxy) stearic acid], the Kd in test [1] was found to be 340 ± 20 nM; in test [2], 160 ± 90 nM.
As for “recombinant EgAgB8/2 subunit of Echinococcus granulosus antigen B (natural protein)”, the stoichiometry N in test [3] is 7 to 8 subunits.
Turning to “recombinant EgAgB8/3 subunit of Echinococcus granulosus antigen B (natural protein)”, the stoichiometry N in test [4] lay within 4 to 5 subunits.
